The text below walks through data of US5216156A, “Non-migrating 1-hydrocarbyloxy-2,2,6,6-tetramethylpiperidine 1,3,5-triazine derivatives” (Ciba-Geigy Corporation, priority 1992, dated 1993).

Molecules are shown by their SMILES.

Data set [1] in a line: Extraction of stabilizer from polyester polyurethane refinish enamel film by refluxing toluene, GC (Example 75). To be noted: 2% by weight on resin solids, film baked 30 minutes at 60° C., stored one month, refluxing toluene one hour. The method, then: A polyester polyurethane refinish enamel is prepared from a polyester resin (DESMOPHEN® 670A-80, Mobay) and a polyurethane resin (DESMODUR® N-75, Mobay) in a ratio of 1.0:1.1 equivalents, with 1% DABCO® T-12 […] as catalyst. The enamel is stabilized with 2% by weight, based on resin solids, of various hindered amine stabilizers. The stabilized enamel is spray applied to a thickness of 1.8-2.0 mils (0.0457-0.0508 mm) onto glass plates and baked for 30 minutes at 140° F. (60° C.). After storage for one month in an air-conditioned room, the films are removed from the glass plates and placed in a round-bottomed flask and then extracted with refluxing toluene for one hour. The films are then removed and the toluene is analyzed for any stabilizer extracted by gas chromatography.
If the stabilizer is chemically bonded to the polymer film, little if any of the stabilizer is extracted by the refluxing toluene.

Data set [2] is described as follows: Extraction of stabilizer from high solids thermoset acrylic enamel film by refluxing toluene, GC (Example 78). The settings on record: refluxing toluene one hour; for Percent Stabilizer Extracted: 1% by weight on resin solids, baked 30 minutes at 121° C., stored one week, GC; for extraction of stabilizer from the stabilized enamel: in words, thermoset acrylic enamel. An excerpt: A model high solids thermoset acrylic enamel based on a binder of 60% of a polymer comprising monomers such as 2-hydroxyethyl acrylate, butyl acrylate, butyl methacrylate, styrene and acrylic acid, and 40% of a melamine resin with an acid catalyst such as p-toluenesulfonic acid is formulated and stabilized with 1% by weight, based on resin solids, of a variety of hindered amine stabilizers.
This enamel is spray applied to a thickness of 1.8-2.0 mils (0.0457-0.0508 mm) onto glass plates and baked for 30 minutes at 250° F. (121° C.). After storage for one week in an air-conditioned room, the films are removed from the glass plates and placed in a round-bottomedflask and extracted with refluxing toluene for one hour. After one hour, the films are removed and the toluene extract is analyzed for extracted stabilizer by gas chromatography.

Data set [3] is described as follows: Hindered amine basicity (pKa). Format: physicochemical. The settings on record: Table 1; N-substituted derivatives of 4-hydroxy-2,2,6,6-tetramethylpiperidine. The text has this:
There are clear advantages in using the hindered amine compounds having 1-hydrocarbyloxy substitution. In certain polymer systems, there is a definite advantage in using a less basic stabilizer. For example, the cure of acid-catalyzed thermoset melamine crosslinked automotive coatings systems can be severely retarded by an interaction between the acid catalyst and a basic hindered amine stabilizer.

For the compound `CCCCCCCCON1C(C)(C)CC(OC(=O)CCCCCCCCC(=O)OC2CC(C)(C)N(OCCCCCCCC)C(C)(C)C2)CC1(C)C` [HA 1, bis(1-octyloxy-2,2,6,6-tetramethylpiperidin-4-yl) sebacate, reference compound], the “Percent Stabilizer Extracted” value in data set [1] and in data set [2] was 100% throughout.
Regarding `CCCCN(c1nc(NCCO)nc(N(CCCC)C2CC(C)(C)N(OC3CCCCC3)C(C)(C)C2)n1)C1CC(C)(C)N(OC2CCCCC2)C(C)(C)C1` [Example 1, 2-[(2-Hydroxyethyl)amino]-4,6-bis[N-(1-cyclohexyloxy-2,2,6,6-tetramethylpiperidin-4-yl)-butylamino]-1,3,5-triazine], the “Percent Stabilizer Extracted” value in data set [1] worked out at 0%. In data set [2], the “Percent Stabilizer Extracted” value amounted to 0% and the “extraction of stabilizer from the stabilized enamel” value was “resist extraction from the stabilized enamel”.
On to `CN1C(C)(C)CC(O)CC1(C)C` [N--Me], for which the pKa in data set [3] turned out to be 10.0.
For `CCCCN(c1nc(NCCCCCC(=O)O)nc(N(CCCC)C2CC(C)(C)N(OC3CCCCC3)C(C)(C)C2)n1)C1CC(C)(C)N(OC2CCCCC2)C(C)(C)C1` [Example 15, N-{4,6-Bis[(1-cyclohexyloxy-2,2,6,6-tetramethylpiperidin-4-yl)butylamino]-1,3,5-triazin-2-yl}-6-aminohexanoic acid], the “Percent Stabilizer Extracted” value in data set [1] turned out to be 23%.
As for `CC1(C)CC(O)CC(C)(C)N1` [N--H, 4-hydroxy-2,2,6,6-tetramethylpiperidine], the pKa in data set [3] was determined as 10.0.
As for `CCCCCCCCON1C(C)(C)CC(N(CCCC)c2nc(NCCO)nc(N(CCCC)C3CC(C)(C)N(OCCCCCCCC)C(C)(C)C3)n2)CC1(C)C` [Example 2, 2-[(2-Hydroxyethyl)amino]-4,6-bis[N-(1-octyloxy-2,2,6,6-tetramethylpiperidin-4-yl)butylamino]-1,3,5-triazine], in data set [1], the “Percent Stabilizer Extracted” value is given as 0%. Further, in data set [2], the “Percent Stabilizer Extracted” value was determined as 0% and the “extraction of stabilizer from the stabilized enamel” value is listed as “resist extraction from the stabilized enamel”.
On to `CCCCCCCCON1C(C)(C)CC(N(CCCC)c2nc(NCCCCCC(=O)O)nc(N(CCCC)C3CC(C)(C)N(OCCCCCCCC)C(C)(C)C3)n2)CC1(C)C` [Example 16, N-{4,6-Bis[(1-octyloxy-2,2,6,6-tetramethylpiperidin-4-yl)butylamino]-1,3,5-triazin-2-yl}-6-aminohexanoic acid], for which the “Percent Stabilizer Extracted” value in data set [1] is on record as 21%.
On to `CON1C(C)(C)CC(O)CC1(C)C` [N--OMe], for which the pKa in data set [3] amounted to 4.8.

Usually pKa stands for the negative logarithm of the acid dissociation constant.
